Laboratory results as given in patent US20220089646A1 (THE UNIVERSITY OF QUEENSLAND, priority 2019, published 2022).
*1 amine or outer side, *2 acyl side, *3 side chain or, on linkers, in order; H or OH if unused. Where a SMILES comes first, the peptide text is derived from it. Bridges are numbered along the chain shown (N, C = ends). [ ]: non-standard residue; d: D form. ξ: configuration not given here. Phe(4-NO2) = N[C@@H](Cc1ccc([N+](=O)[O-])cc1)C(=O)O; Phe(4-Cl) = N[C@@H](Cc1ccc(Cl)cc1)C(=O)O; NHCH2CMe2S = CC(C)(CN[*:1])S[*:2]; NMeR = CN[C@@H](CCCNC(=N)N)C(=O)O; X1 = CC(C)(CN[*:2])S[*:1]; ξC = NC(CS)C(=O)O; Sar = CNCC(=O)O

Columns and labels:
DOP = DOP (Homo sapiens, UniProt P41143); assay: In vitro cAMP activity at DOP (Table 10); assay type: cell-based; conditions: cAMP inhibition, four-parameter regression
Sequence of DOP (P41143 whole entry): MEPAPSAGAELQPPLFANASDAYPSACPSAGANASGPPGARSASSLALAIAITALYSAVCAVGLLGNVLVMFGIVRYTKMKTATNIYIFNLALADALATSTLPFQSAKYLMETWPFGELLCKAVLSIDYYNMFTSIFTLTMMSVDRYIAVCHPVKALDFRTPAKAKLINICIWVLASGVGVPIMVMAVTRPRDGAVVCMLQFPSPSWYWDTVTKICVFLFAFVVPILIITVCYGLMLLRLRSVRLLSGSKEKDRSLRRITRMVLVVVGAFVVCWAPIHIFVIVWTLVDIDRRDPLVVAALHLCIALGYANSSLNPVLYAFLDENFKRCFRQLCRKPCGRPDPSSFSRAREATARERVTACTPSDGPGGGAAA
Protocol: (§1) The CP series compounds were assayed as follows: The assay was performed using a 96 well ½ area plate. The different cAMP standard solutions (3 μL/well) were plated in duplicate. The different concentrations of drug (3 μL/well), and control solutions (3 μL/well) were plated in triplicate. Following this, the acceptor bead mixture (3 μL/well) was added to the respective sets—either cAMP standard curve or the treatment. This was covered and incubated on the orbital shaker for 60 minutes at 37° C. Then, the donor bead mixture (10 μL/well) was added to each well. This was incubated at room temperature overnight on the orbital shaker.
(§2) For DP-11-06 the assay was carried out in the same way as for the CP compounds except it was incubated for 30 mins at 37° C.
(§3) For the CP series compounds and DP-11-06, the Ensight® Multimode Plate Reader was used to quantify the fluorescence units of each plate. Before reading, each plate was centrifuged at 280 g for 30 seconds. Using GraphPad Prism7® Software, cAMP concentrations were determined by fit spline/LOWESS analysis. The cAMP standard curve was used for interpolation at this point. The cAMP concentrations were then normalized to the highest cAMP concentration recorded and analyzed by one-way ANOVA for multiple comparisons. The IC50 for each compound was then calculated using GraphPad Prism7® with non-linear regression analysis using four parameter curve fitting.
(§4) In this regard, a different regression analysis method was adopted on the above cAMP experiments. Particularly, a new non-linear regression (four-parameter) was adopted to better account for hill slope, thereby improving the regression fit.

KOP = KOP (Homo sapiens, UniProt P41145); assay: In vitro cAMP activity at KOP (Table 10); assay type: cell-based; conditions: cAMP inhibition, four-parameter regression, normalised to U50488H
Sequence of KOP (P41145 whole entry): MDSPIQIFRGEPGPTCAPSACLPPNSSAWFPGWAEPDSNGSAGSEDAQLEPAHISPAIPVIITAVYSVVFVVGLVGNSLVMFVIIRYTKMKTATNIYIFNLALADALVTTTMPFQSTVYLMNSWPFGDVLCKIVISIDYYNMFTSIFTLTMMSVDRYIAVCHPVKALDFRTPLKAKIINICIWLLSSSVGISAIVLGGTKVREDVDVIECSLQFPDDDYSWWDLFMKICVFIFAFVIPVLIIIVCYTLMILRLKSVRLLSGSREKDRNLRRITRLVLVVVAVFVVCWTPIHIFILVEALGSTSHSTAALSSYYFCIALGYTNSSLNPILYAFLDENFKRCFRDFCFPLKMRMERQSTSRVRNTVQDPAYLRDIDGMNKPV
Protocol: as §1, §2, §3
(§5) The results shown in Table 10 utilized rat plasma. • Note that DP-7-11 and CP5 represent the same compound, and DP-7-12 and CP6 are the same compound. In this regard, a different regression analysis method was adopted on the above cAMP experiments. Particularly, a new non-linear regression (four-parameter) was adopted to better account for hill slope, thereby improving the regression fit.

MOP = MOP (Homo sapiens, UniProt P35372); assay: In vitro cAMP activity at MOP (Table 10); assay type: cell-based; conditions: cAMP inhibition, four-parameter regression
Sequence of MOP (P35372 whole entry): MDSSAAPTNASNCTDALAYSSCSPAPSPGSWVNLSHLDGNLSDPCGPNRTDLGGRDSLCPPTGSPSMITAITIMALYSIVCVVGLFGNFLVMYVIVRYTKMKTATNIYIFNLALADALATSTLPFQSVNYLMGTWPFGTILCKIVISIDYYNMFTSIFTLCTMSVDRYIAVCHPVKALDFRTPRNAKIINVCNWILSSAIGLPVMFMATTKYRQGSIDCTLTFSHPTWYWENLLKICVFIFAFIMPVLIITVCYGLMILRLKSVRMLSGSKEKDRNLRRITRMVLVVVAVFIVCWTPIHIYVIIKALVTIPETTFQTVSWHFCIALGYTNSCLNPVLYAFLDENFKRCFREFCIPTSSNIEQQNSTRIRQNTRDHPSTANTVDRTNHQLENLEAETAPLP
Protocol: as §1, §2, §3, §4

[1] = biological target: T1, bovine pancreatic trypsin (Bos taurus, UniProt P00760); assay: Trypsin stability assay (Table 10); assay type: in vitro ADME; conditions: for half-life: bovine pancreatic trypsin 2.5 μg/mL, 37° C., One Phase Decay, read-out: Stability (t1/2, mins) Trypsin
T1 construct: from tissue; host or cells: bovine pancreas
T1 sequence (P00760 24-246): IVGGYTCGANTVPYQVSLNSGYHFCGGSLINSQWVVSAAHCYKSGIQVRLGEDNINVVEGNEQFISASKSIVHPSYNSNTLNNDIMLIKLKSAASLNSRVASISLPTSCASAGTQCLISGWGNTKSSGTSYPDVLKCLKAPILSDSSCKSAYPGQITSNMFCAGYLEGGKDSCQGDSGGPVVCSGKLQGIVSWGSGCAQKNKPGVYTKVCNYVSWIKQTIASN
Description: (§6) FIG. 20 is a series of graphs showing the stability of selected peptides in a trypsin (left-hand graphs) and plasma (right-hand graphs) stability assay (data normalised to concentration of each peptide at t=0, determined by LCMS, within each substrate; data analysed using One Phase Decay nonlinear regression in Prism software and each experiment performed in triplicate; mean+/−SEM);
Plasma was collected in house from adult mixed-gender Wistar rats, prepared using 2% EDTA as per standard practice. Peptides were added to rat plasma samples at 37° C. (in a water bath) with final concentrations of 100 uM (1:9 peptide in water:plasma) and a 50 μL sample was immediately taken and precipitated in 150 μL cold acetonitrile (9:1 ACN:water). This sample became the baseline, or t=0 min sample. […] At each time point, the 50 μL of plasma collected was immediately added to cold ACN. Each collected plasma sample in ACN was directly vortexed for 30 seconds and then centrifuged at room temperature (13K rpm, 5 min). 150 μL of the supernatant was taken and directly placed in glass HPLC vials for LCMS analysis.
The protocol for the trypsin stability assay was very similar to the plasma stability assay discussed above. The only difference was the use of a trypsin solution (bovine pancreatic trypsin 2.5 μg/mL in NH4HCO3 buffer, pH approx. 8-8.5, 37° C.) instead of rat plasma. Volumes, times and preparation protocols were exactly as mentioned above.

[2] = Plasma stability assay (Table 10); assay type: in vitro ADME; conditions: rat plasma, 37° C., 100 uM peptide, One Phase Decay; read-out: Stability (t1/2, mins) Plasma
Description: as §6, §5
Plasma was collected in house from adult mixed-gender Wistar rats, prepared using 2% EDTA as per standard practice. Peptides were added to rat plasma samples at 37° C. (in a water bath) with final concentrations of 100 uM (1:9 peptide in water:plasma) and a 50 μL sample was immediately taken and precipitated in 150 μL cold acetonitrile (9:1 ACN:water). This sample became the baseline, or t=0 min sample. Plasma with peptide was immediately returned to the water bath and subsequent 50 μL samples were taken at 5, 10, 15, 30, 60 and 120 min. At each time point, the 50 μL of plasma collected was immediately added to cold ACN. Each collected plasma sample in ACN was directly vortexed for 30 seconds and then centrifuged at room temperature (13K rpm, 5 min). 150 μL of the supernatant was taken and directly placed in glass HPLC vials for LCMS analysis.

trypsin = biological target: T2, trypsin (Bos taurus, UniProt P00760); assay: Trypsin stability; assay type: in vitro ADME; conditions: for Trypsin: complete degradation within: 37° C. (Table 8)
T2 sequence (P00760 24-246): T1 sequence (P00760 24-246)
Protocol: (§7) Purified DP-7-11 (1 mg/mL) was dissolved in 0.1 M ammonium bicarbonate (NH4HCO3) buffer. To prepare a stock trypsin solution, 1 mg trypsin was dissolved in 50 mL of 0.1 M NH4HCO3 buffer. Equal volumes of the stock trypsin solution (62.5 μL) and DP-7-11 solution (62.5 μL) were incubated in 375 μL of 0.1M NH4HCO3 buffer in a 37° C. water bath. Aliquots of 100 μL were collected from this mixture at set time intervals of 0 min, up to 24 hours. Ice-cold acetonitrile containing 0.5% TFA was used to quench the reaction between DP-7-11 and trypsin at predetermined intervals, and just prior to HPLC or LC-MS analysis. The quenched samples were vortexed for 10 minutes followed by centrifugation at 12,000 rpm for a further 15 minutes. Supernatant was sampled and analysed using analytical RP-HPLC or LC-MS. Samples without trypsin acted as negative controls and were sampled at two intervals of 0 hour and 6 hours.
(§8) As used in this serum and trypsin stability discussion, the term ‘degraded completely’ relates to the relevant compound being completely absent when tested. In other words, the compound being tested is not observed when tested.
(§9) The serum and trypsin stability of DP-7-11 and DP-7-12 were tested (in some instances again) using LC-MS. The LC-MS utilized in this study was more sensitive than the LC-MS utilized in the above tests.

Serum stability = assay type: in vitro ADME; conditions: rat, serum, 37° C., LC-MS (Table 8)
Protocol: as §7
Serum stability of DP-7-11 was also performed. In this regard, rat serum replaced trypsin and NH4HCO3 buffer. Water was used as negative control in place of serum, with the stability study performed in an identical fashion to the trypsin study. […] DP-11-00 and DP-11-06 were tested in a similar manner.
as §8
This appears to indicate the improved metabolic stability of the present invention.
as §9

Structure (SMILES)	EC50 (DOP) [nM]	EC50 (KOP) [nM]	EC50 (MOP) [nM]	half-life [1] [min]	half-life [2] [min]	further results
CC(C)C[C@H](NC(=O)[C@H](Cc1ccc(Cl)cc1)NC(=O)CN(C)C(=O)[C@@H](N)Cc1ccc(O)cc1)C(=O)N[C@@H](CCCNC(=N)N)C(=O)N[C@H](CCCNC(=N)N)C(=O)NC1CSSC(C)(C)CNC(=O)C[C@@H](C(=O)N[C@@H](CCCCN)C(N)=O)NC(=O)[C@H](CCCNC(=N)N)NC1=O (stereo partly drawn) [CP10, c(Tyr-Sar-(p-Cl-Phe)-Leu-Arg-D(Arg)-SSa-Arg-Asp-Lys)] (H-Y[Sar][Phe(4-Cl)]LR[dR][ξC]RDK-NH2; linker 7-9 via X1; N-terminus assumed)	127	0.94	1600	2.3		
CC(C)C[C@H](NC(=O)[C@H](Cc1ccc([N+](=O)[O-])cc1)NC(=O)CN(C)C(=O)[C@@H](N)Cc1ccc(O)cc1)C(=O)N[C@@H](CCCNC(=N)N)C(=O)N(C)[C@@H](CCCNC(=N)N)C(=O)NC1CSSC(C)(C)CNC(=O)C[C@@H](C(=O)N[C@@H](CCCCN)C(N)=O)NC(=O)[C@H](CCCNC(=N)N)NC1=O (stereo partly drawn) [CP12, c(Tyr-Sar-(p-NO2-Phe)-Leu-Arg-NMA-SSa-Arg-Asp-Lys)] (H-Y[Sar][Phe(4-NO2)]LR[NMeR][ξC]RDK-NH2; linker 7-9 via X1; N-terminus assumed)		7.5		0.019	< 0.01	
CC(C)C[C@H](NC(=O)[C@H](Cc1ccccc1)NC(=O)CNC(=O)CNC(=O)[C@@H](N)Cc1ccc(O)cc1)C(=O)N[C@@H](CCCNC(=N)N)C(=O)N[C@@H](CCCNC(=N)N)C(N)=O [DP-7-00, Tyr-Gly-Gly-Phe-Leu-Arg-Arg]						Susceptibility to trypsin digestion (trypsin): highly susceptible; Trypsin: complete degradation within (trypsin): within 1 h
CC1(C)CNC(=O)C[C@H](NC(=O)CNC(=O)[C@@H](N)Cc2ccc(O)cc2)C(=O)N[C@@H](Cc2ccccc2)C(=O)NC(C(=O)N[C@@H](CCCNC(=N)N)C(=O)N[C@@H](CCCNC(=N)N)C(N)=O)CSS1 (stereo partly drawn) [CP4, c(Tyr-Gly-Asp-Phe-SSa-Arg-Arg)] (H-YGDF[ξC]RR-NH2; linker 3-5 via NHCH2CMe2S; N-terminus assumed)	> 10000	> 10000	> 10000			
CC[C@H](C)[C@H](NC(=O)[C@H](CCCN=C(N)N)NC(=O)[C@H](CCCN=C(N)N)NC(=O)[C@H](CC(C)C)NC(=O)[C@H](Cc1ccccc1)NC(=O)CNC(=O)CNC(=O)[C@@H](N)Cc1ccc(O)cc1)C(=O)N[C@@H](CCCN=C(N)N)C(=O)N1CCC[C@H]1C(=O)N[C@@H](CCCCN)C(N)=O [DP-11-00]						Susceptibility to trypsin digestion (trypsin): highly susceptible; Trypsin: complete degradation within (trypsin): within 1 h
CC1(C)CNC(=O)C[C@@H](NC(=O)CNC(=O)[C@@H](N)Cc2ccc(O)cc2)C(=O)N[C@@H](Cc2ccccc2)C(=O)N[C@H](C(=O)N[C@@H](CCCNC(=N)N)C(=O)N[C@@H](CCCNC(=N)N)C(N)=O)CSS1 [DP-7-14, c(Tyr-Gly-D(Asp)-Phe-SSa-Arg-Arg)] (H-YG[dD]FCRR-NH2; linker 3-5 via NHCH2CMe2S)				< 0.01	< 0.01	
CC1(C)CNC(=O)C[C@@H](C(=O)N[C@@H](CCCNC(=N)N)C(=O)N[C@@H](CCCNC(=N)N)C(N)=O)NC(=O)[C@H](Cc2ccccc2)NC(=O)CNC(=O)C(NC(=O)[C@@H](N)Cc2ccc(O)cc2)CSS1 (stereo partly drawn) [CP1, c(Tyr-SSa-Gly-Phe-L-Asp-Arg-Arg)]	> 10000	1270	4530	< 0.01	< 0.01	
CC1(C)CNC(=O)C[C@@H](C(=O)N[C@@H](CCCNC(=N)N)C(=O)N[C@@H](CCCNC(=N)N)C(N)=O)NC(=O)[C@H](Cc2ccccc2)NC(=O)C(NC(=O)CNC(=O)[C@@H](N)Cc2ccc(O)cc2)CSS1 (stereo partly drawn) [CP3, c(Tyr-Gly-SSa-Phe-Asp-Arg-Arg)] (H-YG[ξC]FDRR-NH2; linker 3-5 via X1; N-terminus assumed)	> 10000	> 10000	> 10000			
CC1(C)CNC(=O)C[C@H](C(=O)N[C@@H](CCCNC(=N)N)C(=O)N[C@@H](CCCNC(=N)N)C(N)=O)NC(=O)[C@H](Cc2ccccc2)NC(=O)C(NC(=O)CNC(=O)[C@@H](N)Cc2ccc(O)cc2)CSS1 (stereo partly drawn) [DP-7-13, c(Tyr-Gly-SSa-Phe-D(Asp)-Arg-Arg)] (H-YG[ξC]F[dD]RR-NH2; linker 3-5 via X1; N-terminus assumed)				< 0.01	< 0.01	
CC[C@H](C)[C@H](NC(=O)C1CSSC(C)(C)CNC(=O)C[C@@H](NC(=O)[C@H](Cc2ccccc2)NC(=O)CNC(=O)CNC(=O)[C@@H](N)Cc2ccc(O)cc2)C(=O)N[C@@H](CCCNC(=N)N)C(=O)N1)C(=O)N[C@@H](CCCNC(=N)N)C(=O)N1CCC[C@H]1C(=O)N[C@@H](CCCCN)C(N)=O (stereo partly drawn) [DP-11-06, c(Tyr-Gly-Gly-Phe-D(Asp)-Arg-SSa-Ile-Arg-Pro-Lys)] (H-YGGF[dD]R[ξC]IRPK-NH2; linker 5-7 via NHCH2CMe2S; N-terminus assumed)		0.75		360	30	half-life (Serum stability): 1800 s; Peptide remained in trypsin after 360 minutes ([1]; n = 1): # (more than 90% remained after 360 minutes)
